Laboratory results reported in US6706686B2, “Inhibition of histone deacetylase as a treatment for cardiac hypertrophy” (The Regents of the University of Colorado, priority 2001, dated 2004).
Entries after “also recorded” stand apart in the source; their conditions may differ.

What was measured:
[1] = tested on: rat neonatal cardiomyocytes; experiment: Gene chip array analysis; format: cell-based; settings: two-or-more-fold difference
Description: FIGS. 7A-B. TSA induces the activation of genes that are involved in cardiomyocyte differentiation. […] (FIG. 7B) Four genes were inactivated by phenylephrine and activated by TSA (results from one phenylephrine chip, two phenylephrine/TSA chips, and one TSA chip.)
Gene chip and analysis. RNA was isolated using Trizol (Invitrogen, Carlsbad, Calif.) from untreated, phenylephrine-treated, TSA-treated, and phenylephine/TSA co-treated rat neonatal cardiomyocytes. The RNAs were prepared and hybridized on U34A chips (Affymetrix, Inc., Santa Clara, Calif.) according to Affymetrix protocols. The intensity of hybridization was detected by and changes in gene expression were determined and analyzed by Micro Array Suite 5.0 (Affymetrix, Inc., Santa Clara, Calif.).

[2] = tested on: ANF, αSK-actin, αMyHC, βMyHC RNA in cardiomyocytes; experiment: RNA dot blot of fetal gene program; format: cell-based, rat
Description: FIGS. 5A-B. Treatment of cardiomyocytes with HDAC inhibitors blocks the fetal gene program associated with cardiomyocyte hypertrophy. […] The graphs represent three or more independent experiments.
Dot Blot analysis. Total RNA was isolated from cardiomyocytes that were either untreated, treated with phenylephrine, treated with TSA, or co-treated with phenylephrine and TSA. One microgram of RNA was blotted onto Nitrocellulose (Bio-Rad, Hercules, Calif.) and hybridized at 50° C. for 14 hrs with end-labeled oligos. (ANF, 5′-[…]-3, SEQ ID NO 1; αSK actin5′-[…]-3′, SEQ ID NO2; αMyHC,5′[…]-3′, SEQ ID NO 3; βMyHC5′-[…]-3′, SEQ ID NO 4; GAPDH5′-[…]-3′, SEQ ID NO 5). The blots were washed twice in 2×SSC/0.5% SDS solution and exposed to film (Kodak, Rochester, N.Y.) or phosphoimager (Amersham Bioscience, Sunnyvale, Calif.). The intensity of the hybridization of the probes was measured using ImageQuant® (Amersham Bioscience, Sunnyvale, Calif.).

[3] = tested on: CMV-Lac Z reporter in neonatal rat cardiomyocytes; experiment: CMV-Lac Z reporter (specificity control); format: cell-based; settings: inhibitor alone or together with phenylephrine
Description: FIGS. 3A-D. HDAC inhibitors block the activation of ANF reporter by phenylphrine without cytotoxicity. Neonatal rat cardiomyocytes were co-transfected with a total of 1 μg of the mouse 3 kb ANF promoter fragment and CMV-Lac Z plasmids. (FIG. 3A) The ANF promoter is minimally active in unstimulated cardiomyocytes. […] (FIG. 3B) Lac Z expression by the constitutive promoter CMV. Treatment with HDAC inhibitors augmented CMV activity with and without phenylephrine co-treatment. (FIGS. 3C and 3D) The graphs show the measurements of adenylate kinase activity remains constant in the medium after […] of culturing cardiomyocytes in the absence or presence of hypertrophic stimulants FBS, PE or ET-1.
Transcription assay. Twenty-four hours after plating, cells were transfected with total of 1 μg/ml for 5 hrs using Lipofectamine Plus reagent (Invitrogen, Carlsbad, Calif.). Transfected cells were incubated 24 hrs then treated for an additional 24 hrs. Cells were lysed and their lysates assayed with the Luciferase Assay System (Promega, Madison, Wis.) for luminescence using Lucysoft 2 luminometer (Rosys Anthos, New Castle, Del.).

[4] = tested on: ANF in neonatal cardiomyocytes; experiment: ANF chemiluminescence detection, dose response; format: cell-based, rat
Description: FIGS. 4A-C. […] As in the transfection experiments, phenylephrine (100 µM) induces ANF expression over three-fold. […] (FIGS. 4B and 4C) The graphs show a reduction of the chemiluminent detection of ANF in the culture medium with increasing concentrations of the HDAC inhibitors TSA (FIG. 4B) and sodium butyrate (FIG. 4C) when co-cultured with the hypertrophic stimulants FBS, PE or ET-1.
Chemilumenescence. Neonatal cardiomyocytes were seeded onto 96-well plates and treated for 72 hrs. The cells were washed twice in 1×PBS, fixed in 4% paraformaldehyde/1×PBS, and permeabilized with 0.1% Triton-X100. After blocking, the cells were incubated 1 hr. with 10 μg/ml monoclonal anti-ANF antibody (Biodesign). The wells were washed twice with 1% BSA/1× PBS and then incubated for 1 hr. with goat anti-mouse IgG-Fc-HRP (Jackson Labs, […]) at 1:1000 in 1× PBS/1% BSA. Cells were washed twice with 1% BSA/1×PBS, twice with 1× PBS, then blotted dry. Luminol (Pierce, Rockford, Ill.) was added and the chemiluminescence was detected in a Fusion Plate Reader (Perkin Elmer/Packard).

ras transformed cells = settings: Taunton et al., 1996; cited from earlier work
[5] = tested on: cultured cardiac myocytes; experiment: Myocyte growth by 14C-phenylalanine radiolabeled protein content; format: cell-based, rat
Description: Cell culture. Ventricular myocytes from one-day-old rats were plated at low density in MEM with 5% calf serum, and studied in serum-free MEM. Cultures were treated with PE (#P6126, Sigma-Aldrich Corp., St. Louis, Mo.), IL-1 (#501-RL, R&D Systems, Minneapolis, Minn.), TSA (#GR-309, BIOMOL Research Laboratories, Inc., Plymouth Meeting, Pa.) or their vehicles (ascorbic acid for PE; bovine serum albumin for IL-1; dimethyl sulfoxide for TSA).
Quantification of myocyte hypertrophy and myocyte-specific mRNA expression. Growth of cultured myocytes was quantified by content of radiolabeled protein after continuous incubation with ^14C-phenylalanine. For evaluation of the myocyte gene program, total RNA was extracted from cells with TRIZol (GIBCO, Carlsbad, Calif.) and used in RNase protection assay with probes for SERCA, α-/β-MyHC, ANP, BNP, and cardiac α-actin. All samples also included glyceraldehyde phosphate dehydrogenase (GAPDH) as an internal control for RNA loading.

## CC(/C=C/C(=O)NO)=C\[C@@H](C)C(=O)c1ccc(N(C)C)cc1 [TSA, Trichostatin A]
[1]; genes down-regulated by phenylephrine
  expression of big Tau-microtubule-associated protein, ubiquitin carboxyl-terminal hydrolase, Thy-1 cell-surface glycoprotein, MyHC class I antigen: up-regulated by TSA
[1]; genes up-regulated by phenylephrine
  expression of cytochrome oxidase subunit VIII, mouse T-complex protein, insulin growth factor binding protein-3: down-regulated by TSA
[2]; TSA treatment
  αMyHC expression: induced the expression of αMyHC; also recorded: stimulated the expression of αMyHC
[2]; phenylephrine 100 μM, TSA 85 nM, sodium butyrate 5 mM, HC-toxin 5 ng/ml
  phenylephrine-induced endogenous ANF RNA expression: prevented the phenylephrine-induced ANF response; also recorded: blocks the accumulation of ANF message
[2]; phenylephrine co-treatment
  phenylephrine-induced αSK-actin expression: suppression of other genes activated by the hypertrophic stimulant; also recorded: lack of gene activation
  phenylephrine-induced βMyHC expression: down-regulating the fetal myosin chain isoform; also recorded: prevented the activation of βMyHC
[3]
  transcriptional activity of CMV-Lac Z reporter: increased the transcriptional activity of the CMV-Lac Z reporter
[4]; FBS, PE, ET-1
  minimal concentration that inhibited the hypertrophic response (ANF) of each growth stimulant: 40 nM
[4]; increasing concentrations
  induction of ANF expression by FBS, PE and ET-1: countered the induction of ANF expression
[4]; very low doses (0.2 nM printed for sodium butyrate)
  ANF expression at very low doses: only a marginal increase
Ras transformed cells
  acetylation: induce hyperacetylation
  morphology of ras transformed cells: cause reversion of ras transformed cells to normal morphology
[5]; inhibitor by itself
  myocyte growth: had no effect on myocyte growth
[5]; with PE or IL-1
  hypertrophic responses to PE and IL-1 (growth): enhanced the individual hypertrophic responses to both PE and IL-1
